Data: article PMC12254266, “Multicolored sequential resonance energy transfer for detection of simultaneous ligand binding at G protein-coupled receptors” (Nature Communications, 2025)
Where “and” joins values, the source holds several entries; their conditions need not be identical. Equal values may be shown once. Read-outs that look alike come from different tables or passages of the source.

Columns and labels:
FFA1 [1] = biological target: T1, FFA1 (Homo sapiens, UniProt O14842); assay: Ca2+ mobilisation (Fura2) in Flp-In T-REx 293 cells expressing Nluc-FFA1, FFA1-Nluc or untagged FFA1; format: cell-based; design: expressed in transfected cells
T1 sequence (O14842 whole entry): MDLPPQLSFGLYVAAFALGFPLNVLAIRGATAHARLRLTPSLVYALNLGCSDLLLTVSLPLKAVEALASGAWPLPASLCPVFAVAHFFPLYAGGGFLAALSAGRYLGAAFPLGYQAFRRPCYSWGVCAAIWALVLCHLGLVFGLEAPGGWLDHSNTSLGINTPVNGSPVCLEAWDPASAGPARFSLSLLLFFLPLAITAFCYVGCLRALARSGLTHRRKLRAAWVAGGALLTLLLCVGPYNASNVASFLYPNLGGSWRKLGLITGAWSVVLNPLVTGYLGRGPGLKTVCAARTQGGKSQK
Description: Nluc-FFA1, FFA1-Nluc or untagged FFA1 Flp-In T-REx 293 cells were plated at 50,000 cells per well in poly-D-lysine coated black clear bottom 96-well plates. Cells were then cultured for 24 h until reaching confluency before culture medium was replaced with medium containing 100 ng/mL of doxycycline to induce receptor expression. Cells were cultured for a further 24 h before the assay. On the day of the assay culture medium was removed and replaced with medium containing 3 μM Fura2-AM Ca^2+ dye. […] Fura2 fluorescent emission at 520 nm following excitation with each of 340 and 380 nm was measured in regular intervals both before and after adding test compounds for a total of 90 s per well. Calcium responses were determined by taking the peak 340/380 ratio after first subtracting the ratios obtained prior to addition of test compound.

FFA1-Nluc [2] = biological target: T2, FFA1-Nluc (Homo sapiens, UniProt O14842); assay: Bystander BRET internalisation assay, FFA1-Nluc in HEK293T cells; format: cell-based; design: expressed in transfected cells; host or cells: HEK293T (ATCC, CRL-3216), transient; settings: in words; up to 60 min
T2 sequence (O14842 whole entry): as above
Description: Cells were transfected using a reverse transfection protocol while plating into a poly-D-lysine coated white 96-well plates. Cells were plated at 60,000 cells with 100 ng of plasmid DNA and 0.6 µg of polyethyleneimine (PEI) per well. Cells were cultured for 24 h before washing with HBSS and incubating in HBSS at 37 °C for 30 min. NanoGlo substrate was added a final 1:800 dilution and plates incubated for 10 min at 37 °C. […] After 5 min of baseline measurements, readings were paused and test compounds added to the plate.

FFA1-Nluc [3] = biological target: T2, FFA1-Nluc; assay: DISCo-BRET (endpoint, spectra scan, kinetics) with TUG-2591 and TUG-2597 at C terminal Nluc tagged FFA1; format: binding; design: expressed in transfected cells; settings: for Specific BRET (540/450): Sup Fig 3Bii, TUG-2591 0 nM; for Kd: TUG-2597 after TUG-2591 pre-treatment
Method in brief: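 Flp-In T-REx 293 cells expressing Nluc-tagged FFA1 were induced with 100 ng/mL doxycycline for 24 h, then given Nano-Glo (1:800 final). Endpoint and spectral reads were taken 5 min after ligand at 37 °C; kinetics were read at 25 °C with sequential ligand additions. BRET ratios were taken from Nluc, NBD and SulfoCy5 emissions.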

FFA1 [4] = biological target: T1, FFA1; assay: NanoBiT arrestin-3 recruitment in HEK293T cells; format: cell-based; design: expressed in transfected cells; host or cells: HEK293T, transient; settings: ± SEM
Description: For arrestin-3 recruitment assays, HEK293T cells were transfected with FFA1 receptor and a bystander NanoBiT split luciferase arrestin-3 recruitment biosensor. Cells were transfected and plated simultaneously in a reverse transfection protocol into a poly-D-lysine coated white 96-well plate. Per well, 60,000 cells were transfected with 5 ng plasmid expressing LgBiT with a N-terminal Lyn11 plasma membrane localisation tag, 5 ng plasmid expressing bovine arrestin-3 fused at its N-terminal to SmBiT tag and 30 ng plasmid expressing the human FFA1 receptor. Total DNA was made up to 100 ng total/well with empty pcDNA3 vector and transfected to cell suspension with 0.6 µg/well PEI. Following transfection cells were cultured for 24 h before use. On the day of assay, cells were washed twice with HBSS and incubated in HBSS for 30 min at 37 °C. NanoGlo substrate was added at a final 1:800 dilution and incubated in the dark for 10 min at 37 °C. […] Raw luminescence values were divided by baseline signal (average of first 5 data points prior to compound addition) and vehicle measurements subtracted from agonist treatment. Area under curves were calculated and concentration response curves plotted.

[5] = TUG-2591 100 nM + TUG-2597 […], displacing ligand T360 10 μM
[6] = TUG-2597 […] after TUG-2591 pre-treatment (Sup. Fig. 10A)
[7] = based on the value calculated in Supplementary Table 4
[8] = tracers 1.0 μΜ / 3.16 μΜ, displacing ligand T360 (30 μM)

pEC50 (FFA1 [1]; Ca2+ data, mean±SEM, NR = No response): 7.27±0.15
Ca2+ Response as a % of T360 Response (FFA1 [1]; FFA1-Nluc cells, log[ligand] -6.5, technical replicates): 93.856%
activity in Ca2+ assays (FFA1 [1]; in words): full agonist activity
EMax (FFA1 [1]; percentage of response to 10 μM T360, NR = No response): 101±4%
internalization of FFA1-Nluc (FFA1-Nluc [2]): No internalization
kOff DISCo-BRET NBD/Nluc (FFA1-Nluc [3]; [5]): 0.004 s⁻¹
kOff DISCo-BRET SulfoCy5/NBD (FFA1-Nluc [3]; [5]): 0.0045 s⁻¹
kOff DISCo-BRET NBD/Nluc (FFA1-Nluc [3]; TUG-2591 100 nM + TUG-2597 […], displacing ligands TUG-905 and T360 10 μM each): 0.00367 s⁻¹
kOn DISCo-BRET NBD/Nluc (FFA1-Nluc [3]; [6]): 31666.67 M⁻¹ s⁻¹
kOn DISCo-BRET SulfoCy5/NBD (FFA1-Nluc [3]; [6]): 28333.33 M⁻¹ s⁻¹
Kd (FFA1-Nluc [3]; read-out: Kd DISCo-BRET NBD/Nluc (kinetic)): 0.13 µM
Kd (FFA1-Nluc [3]; read-out: Kd DISCo-BRET SulfoCy5/NBD (kinetic)): 0.14 µM
kOff DISCo-BRET NBD/Nluc (FFA1-Nluc [3]; [7]): 0.004 s⁻¹
kOff DISCo-BRET SulfoCy5/NBD (FFA1-Nluc [3]; [7]): 0.004 s⁻¹
off rate from DISCo-BRET binding studies (FFA1-Nluc [3]; range depending on which tracer concentration was used (author rebuttal)): 0.18-0.27
kOff DISCo-BRET NBD/Nluc (FFA1-Nluc [3]; [8]): 0.004 s⁻¹
kOff DISCo-BRET SulfoCy5/NBD (FFA1-Nluc [3]; [8]): 0.003 s⁻¹
kOff DISCo-BRET NBD/Nluc (FFA1-Nluc [3]; tracers 1.0 μΜ / 3.16 μΜ, displacing ligands TUG-905 and T360 (30 μM each)): 0.00667 s⁻¹
EMax (% TUG-905) arrestin-3 recruitment (FFA1 [4]; percentage of the response to 10 μM TUG-905): 60 ± 6%
pEC50 arrestin-3 recruitment (FFA1 [4]; N=3): 8.5 ± 0.3
SMILES: COc1ccc(C(=O)N(CC(C)(C)CNc2ccc([N+](=O)[O-])c3nonc23)c2cccc(C)n2)c(N2CCC(COc3cccc(C(CC(=O)O)C4CC4)c3)CC2)c1.O=C(O)C(F)(F)F (stereo not drawn) [TUG-2597]
Ca2+ Response as a % of T360 Response (FFA1 [1]; FFA1-Nluc cells, log[ligand] -6, technical replicates): 99.449% and 102.959% and 94.044% and 86.097% and 89.862% and 94.557% and 93.903% and 112.372% and 96.085%
Ca2+ Response as a % of T360 Response (FFA1 [1]; Nluc-FFA1 cells, log[ligand] -6, technical replicates): 98.502% and 90.832% and 83.286% and 100.456% and 100.532% and 98.348% and 86.132% and 101.429% and 99.802%
Ca2+ Response as a % of T360 Response (FFA1 [1]; Nluc-FFA1 cells, log[ligand] -6.5, technical replicates): 75.000% and 74.673% and 79.991% and 79.440% and 88.972% and 77.424%
Ca2+ Response as a % of T360 Response (FFA1 [1]; log[Ligand] -5, single technical replicates): 94.1089% and 100.3658% and 94.0694% and 95.2773% and 93.4218% and 94.0281% and 113.6201% and 103.7535% and 91.4802%
Ca2+ Response as a % of T360 Response (FFA1 [1]; log[Ligand] -5.5, single technical replicates): 88.4228% and 88.1164% and 92.8756% and 94.9449% and 95.8176% and 102.8518% and 111.3779% and 100.7045% and 94.6978%
Ca2+ Response as a % of T360 Response (FFA1 [1]; log[Ligand] -6, single technical replicates): 102.9594% and 94.0443% and 86.0972% and 89.8623% and 94.5572% and 93.9027% and 112.3722% and 96.0847% and 99.4485%
Ca2+ Response as a % of T360 Response (FFA1 [1]; log[Ligand] -6.5, single technical replicates): 98.0209% and 82.7239% and 91.3275% and 93.3935% and 84.3453% and 87.8268% and 93.2804% and 88.9497% and 93.8558%
Ca2+ Response as a % of T360 Response (FFA1 [1]; log[Ligand] -7, single technical replicates): 78.0026% and 75.4199% and 62.2477% and 75.7232% and 79.9853% and 65.5987% and 54.9740% and 35.8972% and 43.3457%
Ca2+ Response as a % of T360 Response (FFA1 [1]; log[Ligand] -8, single technical replicates): 14.2762% and 15.7577% and 11.8329% and 8.5966% and 24.0260% and 6.3496% and -0.7745% and -0.6973% and 0.6419%
Ca2+ Response as a % of T360 Response (FFA1 [1]; log[Ligand] -9, single technical replicates): 2.8056% and 3.1175% and 1.8245% and 0.4833% and 3.2822% and 3.2529% and 0.4143% and 0.1324% and 3.0301%
Ca2+ Response as a % of T360 Response (FFA1 [1]; untagged FFA1 cells, log[ligand] -6, technical replicates): 93.834% and 82.677% and 85.015% and 110.264% and 98.194% and 98.400% and 82.235% and 72.424% and 63.906% and 83.124% and 92.268% and 73.931%
Specific BRET (540/450) (FFA1-Nluc [3]; TUG-2597 + TUG-905): 0.2651 and 0.2434 and 0.2485 and 0.2471 and 0.2191 and 0.2108
Specific BRET (540/450) (FFA1-Nluc [3]; TUG-2597 alone): 0.1932 and 0.1879 and 0.1690 and 0.1361 and 0.1137 and 0.1169
